Laboratory results reported in patent US20250066376A1, “OPIOID RECEPTOR ANTAGONIST PRODRUGS” (Nirsum Laboratories, Inc., priority 2024, published 2025).

Assay: Solubility of naloxone and naltrexone prodrug compounds
Assay type: physicochemical
Conditions: for Solubility in water: lower limit of aqueous solubility; for Solubility in cottonseed oil / Solubility in miglyol 812N / Solubility in sesame oil: solubility study in oil excipients at 50 mg/ml (base equivalents)
Text: Example 12: Solubility of Naloxone and Naltrexone Prodrug Compounds
Table 12 and Table 13 report the solubility data for the naloxone and naltrexone prodrug compounds, respectively.

SMILES | Solubility in water | Solubility in cottonseed oil (naltrexone prodrugs (Table 13)) | Solubility in miglyol 812N (naltrexone prodrugs (Table 13)) | Solubility in sesame oil (naltrexone prodrugs (Table 13)) | Solubility in cottonseed oil (naloxone prodrugs (Table 12)) | Solubility in miglyol 812N (naloxone prodrugs (Table 12)) | Solubility in sesame oil (naloxone prodrugs (Table 12))
CCCCOC(=O)OCOc1ccc2c3c1O[C@H]1C(=O)CC[C@@]4(O)[C@@H](C2)N(CC2CC2)CC[C@]314 [IV-4, [(3R,4aS,7aR,12bS)-3-(cyclopropylmethyl)-4a-hydroxy-7-oxo-2,4,5,6,7a,13-hexahydro-1H-4,12-methanobenzofuro[3,2-e]isoquinoline-9-yl]oxymethyl butyl carbonate] | Solubility in water: <0.001 mg/mL | In cottonseed oil: <50.12 mg/mL | In miglyol 812N: <50.41 mg/mL | In sesame oil: <50.07 mg/mL | – | – | –
CCCCCCCCOC(=O)OCOc1ccc2c3c1O[C@H]1C(=O)CC[C@@]4(O)[C@@H](C2)N(CC2CC2)CC[C@]314 [IV-6, [(3R,4aS,7aR,12bS)-3-(cyclopropylmethyl)-4a-hydroxy-7-oxo-2,4,5,6,7a,13-hexahydro-1H-4,12-methanobenzofuro[3,2-e]isoquinoline-9-yl]oxymethyl octyl carbonate] | Solubility in water: <0.001 mg/mL | In cottonseed oil: >50.28 mg/mL | In miglyol 812N: >50.11 mg/mL | In sesame oil: >50.43 mg/mL | – | – | –
C=CCN1CC[C@]23c4c5ccc(OCOC(=O)CCCCC)c4O[C@H]2C(=O)CC[C@@]3(O)[C@H]1C5 [III-1, [(3R,4aS,7aR,12bS)-3-allyl-4a-hydroxy-7-oxo-2,4,5,6,7a,13-hexahydro-1H-4,12-methanobenzofuro[3,2-e]isoquinoline-9-yl]oxymethyl hexanoate] | Solubility in water: <0.001 mg/mL | – | – | – | In cottonseed oil: >50.03 mg/ml | In miglyol 812N: <50.53 mg/ml | In sesame oil: >50.01 mg/ml
C=CCN1CC[C@]23c4c5ccc(OCOC(=O)CCCCC)c4O[C@H]2C(=O)CC[C@@]3(O)[C@H]1C5 [III-2, [(3R,4aS,7aR,12bS)-3-allyl-4a-hydroxy-7-oxo-2,4,5,6,7a,13-hexahydro-1H-4,12-methanobenzofuro[3,2-e]isoquinoline-9-yl]oxymethyl hexanoate] | Solubility in water: <0.001 mg/mL | – | – | – | In cottonseed oil: >50.48 mg/ml | In miglyol 812N: <50.28 mg/ml | In sesame oil: <50.44 mg/ml
CCCCCCOC(=O)OCOc1ccc2c3c1O[C@H]1C(=O)CC[C@@]4(O)[C@@H](C2)N(CC2CC2)CC[C@]314 [IV-5, [(3R,4aS,7aR,12bS)-3-(cyclopropylmethyl)-4a-hydroxy-7-oxo-2,4,5,6,7a,13-hexahydro-1H-4,12-methanobenzofuro[3,2-e]isoquinoline-9-yl]oxymethyl hexyl carbonate] | Solubility in water: <0.001 mg/mL | In cottonseed oil: <50.19 mg/mL | In miglyol 812N: <50.24 mg/mL | In sesame oil: >50.31 mg/mL | – | – | –
